Tests used:
[1] = tested on: rat primary septal neuron culture; experiment: Measurement of acetylcholine (ACh) release in the rat primary septal neuron culture system in the presence of NGF; format: cell-based; details: rat primary septal neurons, with NGF, one day after compound addition, ACh by HPLC
Excerpt: Measurement of acetylcholine (ACh) release in the rat primary septal neuron culture system in the presence of NGF
(1) Rat Primary Septal Neuron Culture
The septal area was isolated from Sprague-Dawley (SD) rats (Charles River Laboratories Japan, Inc.) at a fetal age of 18 days, and cultured.
Specifically, fetuses were aseptically removed from pregnant rats under isoflurane anesthesia. The brain was extracted from each fetus, and immersed in ice-cooled L-15 medium (11415-064, Thermo Fisher Scientific). The septal area was dissected from the extracted brain under a stereoscopic microscope. The dissected septal area was subjected to enzyme treatment in an enzyme solution containing 0.25% trypsin (15050-065, Thermo Fisher Scientific) and 0.01% DNase (D5025-150KU, Sigma) at 37° C. for 30 minutes, thereby dispersing the cells. In this case, the enzyme reaction was terminated by adding inactivated horse serum (26050-088, Thermo Fisher Scientific). The enzyme-treated solution was centrifuged at 1000 rpm for 3 minutes, and the supernatant was removed. A medium in an amount of 10 mL was added to the obtained cell mass. The medium used was Dulbecco's Modified Eagle's Medium (044-29765, WAKO) supplemented with N2 supplement (17502-048, Thermo Fisher Scientific), 1 mM sodium pyruvate (11360-070, Thermo Fisher Scientific), and Penicillin-Streptomycin (15140-1221, Thermo Fisher Scientific). The cells of the cell mass to which the medium was added were redispersed by gentle pipetting, and then centrifuged again at 1000 rpm for 3 minutes, and the supernatant was removed. The medium in an amount of 10 mL was added to the obtained cell mass, and the cell dispersion was filtered through a 40-μm nylon mesh (Cell Strainer) to remove the cell mass, thereby obtaining a neuronal cell suspension. The neuronal cell suspension was diluted with the medium, and 10% inactivated bovine serum (26140-079, Thermo Fisher Scientific) and 10% inactivated horse serum were added. Thereafter, 100 μL/well of the suspension was seeded in a 96-well plate (354461, CORNING) pre-coated with poly-D-lysine so that the initial culture density was 1.4×10^5 cells/cm^2. After the seeded cells were cultured under 5% CO2-95% air in a 37° C. incubator for 2 days, the entire medium was replaced with 120 μL of fresh medium, and the cells were subsequently cultured for 5 days.
On the 7th day of culture, compound was added in the following manner. A solution of the test compound in DMSO was diluted with the medium so that the concentration was 10 times higher than the final concentration. NGF (450-01, PEPRO TECH, INC.) was prepared at 0.3 ng/mL. These two solutions were added each in an amount of 15 μL/well, and the mixture was mixed well. The final DMSO concentration was 0.1% or less. Moreover, only DMSO and NGF were added to the control group.
(3) ACh Release Measurement
One day after compound addition, an amount of ACh release was measured by HPLC in the following manner. A warmed buffer was added at 100 μL/well to the well after the medium was eliminated, and the buffer was immediately removed. Thereafter, a buffer to which 10 μm choline, 10 μm physostigmine, and 6 mM KCl were added was added at 120 μL/well. The buffer was prepared by adding 125 mM NaCl, 25 mM 4-(2-hydroxyethyl)-1-piperazineethanesulfonic acid, 1.2 mM KH2PO4, 1.2 mM MgSO4, 2.2 mM CaCl2 (2H2O), and 10 mM glucose to sterilized water, and the final pH of the solution was set to 7.4. After the 96-well plate to which the buffer was added was incubated under 5% CO2-95% air in a 37° C. incubator for 40 minutes, 80 μL of buffer was collected. An internal standard solution IPHC (5×10^−7 M) was added in an amount of 6 μL to the collected buffer, and the buffer was transferred to a tube for HPLC measurement and subjected to HPLC measurement. […]

[2] = tested on: acetylcholine (ACh) in CSF; experiment: Measurement of acetylcholine (ACh) in rat cerebrospinal fluid (CSF); format: in vivo; details: Fischer344 rat, oral 10 mg/kg once a day for three days, CSF 24 hours after administration, LC-MS
Description: Measurement of Acetylcholine (ACh) in Rat Cerebrospinal Fluid (CSF)
Thus, the changes in acetylcholine in CSF were measured in order to determine the changes in intracerebral acetylcholine by the test compounds.
(2) Compound Administration
In this study, Fischer344 male rats (Charles River Laboratories Japan, Inc.) with a body weight of about 150 to 250 g were used. The test compounds were orally administered to the rats once a day at 10 mg/kg for three days. The vehicle used was 0.01 mol/L hydrochloric acid.
At 24 hours after the administration of the vehicle and the test compounds, the CSF was collected from cistema magna in a tube containing AchE inhibitors under pentobarbital anesthesia. The collected CSF was centrifuged at 3500×g at 4° C. for 10 minutes and the supernatant was collected. The collected supernatant was frozen with liquid nitrogen, and then stored at −80° C.
(4) Measurement of Ach by LC-MS
To 10 μL of the CSF was added 50 μL of acetylcholine-d9 chloride (ACh-d9) at a final concentration of 0.34 nmol/L as an internal standard. […] The supernatant was collected and subjected to LC/MS […], and Ach was detected as precursor ion at m/z 146.050 and as product ion at m/z 87.071 and ACh-d9 as an internal standard was detected as precursor ion at m/z 155.088 and as product ion at m/z 87.000. […]

## CN1CCc2c(sc3nc4n(c(=O)c23)-c2ccc(F)cc2C(=O)N(C)C4)C1 [Example 1]
[1]
  Concentration (μM) showing a 20% or more increase from the amount of ACh in the control group: 0.1 µM
[2]
  Amount (%) increased with respect to from the amount of ACh in CSF the vehicle administration group: 160.0%

## CN1CCc2c(sc3nc4n(c(=O)c23)-c2sccc2C(=O)N(C)C4)C1 [Example 3, 5,10-dimethyl-5,6,9,10,11,12-hexahydropyrido[4″,3″:4′,5′]thieno[2′,3′:4,5]pyrimido[1,2-a]thieno[3,2-f][1,4]diazepine-4,13-dione]
[1]
  Concentration (μM) showing a 20% or more increase from the amount of ACh in the control group: 0.1 µM
[2]
  Amount (%) increased with respect to from the amount of ACh in CSF the vehicle administration group: 156.8%

Source: patent publication US10239889B1, “Pentacyclic compound” (Eisai R&D Management Co., Ltd., priority 2017, dated 2019)
